Measurements taken from ChEMBL document CHEMBL2073942, “Localization of organic anion transport protein 2 in the apical region of rat retinal pigment epithelium” (Invest Ophthalmol Vis Sci, 2002).

Biological target: T1, Solute carrier organic anion transporter family member 1A4 (Rattus norvegicus, UniProt O35913)
T1 sequence (O35913 whole entry): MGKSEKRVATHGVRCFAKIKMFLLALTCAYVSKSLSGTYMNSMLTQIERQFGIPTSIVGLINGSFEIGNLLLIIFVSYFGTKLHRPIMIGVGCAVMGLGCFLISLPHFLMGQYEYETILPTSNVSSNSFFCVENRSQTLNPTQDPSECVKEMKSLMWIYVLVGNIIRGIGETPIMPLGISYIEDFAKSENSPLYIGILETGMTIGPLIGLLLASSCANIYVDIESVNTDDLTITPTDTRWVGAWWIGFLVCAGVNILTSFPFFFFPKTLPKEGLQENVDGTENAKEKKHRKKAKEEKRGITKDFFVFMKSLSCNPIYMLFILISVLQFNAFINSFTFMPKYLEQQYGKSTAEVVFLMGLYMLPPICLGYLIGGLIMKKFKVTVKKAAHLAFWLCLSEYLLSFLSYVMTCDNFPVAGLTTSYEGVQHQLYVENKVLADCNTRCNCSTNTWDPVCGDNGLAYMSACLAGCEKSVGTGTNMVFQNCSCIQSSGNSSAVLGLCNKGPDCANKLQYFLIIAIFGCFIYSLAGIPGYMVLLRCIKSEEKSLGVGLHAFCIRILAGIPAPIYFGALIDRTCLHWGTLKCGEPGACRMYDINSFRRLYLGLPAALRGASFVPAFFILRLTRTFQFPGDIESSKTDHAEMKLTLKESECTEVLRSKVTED
Assay: TP_TRANSPORTER: inhibition of Digoxin uptake in Xenopus laevis oocytes
Format: functional, cell-based, Oocyte

CC1=C(/C=C/C(C)=C/C=C/C(C)=C/c2cc(/C=C/C=C(C)/C=C/C3=C(C)CCCC3(C)C)cc[n+]2CCO)C(C)(C)CCC1
Ki: 37 µM
